# Reference: PubChem BioAssay AID2060907 (Molecular Pharmacology Branch, DTP, NCI, 2025)
# Test system: 388556-164-R-J1-PDC complex spheroid viability
# Test: Anticancer human tumor 388556-164-R-J1-PDC patient-derived colon adenocarcinoma cell line growth inhibition [RAS]
# Conditions: for IC50: curve of first compound; for viability, T/C: stronger effect = lower value
# Procedure, shortened: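 Agents were tested in combination matrices in half-log decrements from a top concentration at or near clinical Cmax (10 microM if undetermined). Targets were multi-cell spheroids of tumour lines plus HUVEC and MSC stromal cells.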
# [1] = second compound 0.0316 µM, first compound 0.00316 µM
# [2] = second compound 0.0316 µM, first compound 0.01 µM
# [3] = second compound 0.0316 µM, first compound 0.0316 µM
# [4] = second compound 0.0316 µM, first compound 0.1 µM
# [5] = second compound 0.0316 µM, first compound 0.316 µM
# [6] = second compound 0.0316 µM, first compound 1 µM
# [7] = second compound 0.1 µM, first compound 0.00316 µM
# [8] = second compound 0.1 µM, first compound 0.01 µM
# [9] = second compound 0.1 µM, first compound 0.0316 µM
# [10] = second compound 0.1 µM, first compound 0.1 µM
# [11] = second compound 0.1 µM, first compound 0.316 µM
# [12] = second compound 0.1 µM, first compound 1 µM
# [13] = second compound 0.316 µM, first compound 0.00316 µM
# [14] = second compound 0.316 µM, first compound 0.01 µM
# [15] = second compound 0.316 µM, first compound 0.0316 µM
# [16] = second compound 0.316 µM, first compound 0.1 µM
# [17] = second compound 0.316 µM, first compound 0.316 µM
# [18] = second compound 0.316 µM, first compound 1 µM
# [19] = second compound 1 µM, first compound 0.00316 µM
# [20] = second compound 1 µM, first compound 0.01 µM
# [21] = second compound 1 µM, first compound 0.0316 µM
# [22] = second compound 1 µM, first compound 0.1 µM
# [23] = second compound 1 µM, first compound 0.316 µM
# [24] = second compound 1 µM, first compound 1 µM
# [25] = second compound 3.16 µM, first compound 0.0316 µM
# [26] = second compound 3.16 µM, first compound 0.1 µM
# [27] = second compound 3.16 µM, first compound 0.316 µM
# [28] = second compound 3.16 µM, first compound 1 µM
# [29] = second compound 10 µM, first compound 0.0316 µM
# [30] = second compound 10 µM, first compound 0.1 µM
# [31] = second compound 10 µM, first compound 0.316 µM
# [32] = second compound 10 µM, first compound 1 µM
# [33] = second compound 0.0316 µM, first compound 3.16 µM
# [34] = second compound 0.0316 µM, first compound 10 µM
# [35] = second compound 0.1 µM, first compound 3.16 µM
# [36] = second compound 0.1 µM, first compound 10 µM
# [37] = second compound 0.316 µM, first compound 3.16 µM
# [38] = second compound 0.316 µM, first compound 10 µM
# [39] = second compound 1 µM, first compound 3.16 µM
# [40] = second compound 1 µM, first compound 10 µM
# [41] = second compound 3.16 µM, first compound 3.16 µM
# [42] = second compound 3.16 µM, first compound 10 µM
# [43] = second compound 10 µM, first compound 3.16 µM
# [44] = second compound 10 µM, first compound 10 µM
# 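Note: spheroids exposed to compound for 7 days before readout.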
# 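Throughout, for viability, T/C: 100% = DMSO vehicle control luminescence.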
compound,measurement,setting,value
Nc1ccn(C2OC(CO)C(O)C2(F)F)c(=O)n1 (stereo not drawn) + C=CC(=O)N1CCN(c2nc(OCC3CCCN3C)nc3c(F)c(-c4nc(N)cc(C)c4C(F)(F)F)c(Cl)cc23)C(C)C1,IC50,second compound 0.00316 µM,> 1000 nM
same,IC50,second compound 0.01 µM,> 1000 nM
same,IC50,second compound 0.0316 µM,> 1000 nM
same,IC50,second compound 0.1 µM,> 1000 nM
same,IC50,second compound 0.316 µM,> 1000 nM
same,IC50,second compound 1 µM,> 1000 nM
same,"viability, T/C","second compound 0.00316 µM, first compound 0.00316 µM",106%
same,"viability, T/C","second compound 0.00316 µM, first compound 0.01 µM",90.6%
same,"viability, T/C","second compound 0.00316 µM, first compound 0.0316 µM",82.7%
same,"viability, T/C","second compound 0.00316 µM, first compound 0.1 µM",79.4%
same,"viability, T/C","second compound 0.00316 µM, first compound 0.316 µM",60.9%
same,"viability, T/C","second compound 0.00316 µM, first compound 1 µM",75.8%
same,"viability, T/C","second compound 0.01 µM, first compound 0.00316 µM",94.3%
same,"viability, T/C","second compound 0.01 µM, first compound 0.01 µM",89.6%
same,"viability, T/C","second compound 0.01 µM, first compound 0.0316 µM",76.3%
same,"viability, T/C","second compound 0.01 µM, first compound 0.1 µM",79.3%
same,"viability, T/C","second compound 0.01 µM, first compound 0.316 µM",70%
same,"viability, T/C","second compound 0.01 µM, first compound 1 µM",68.3%
same,"viability, T/C",[1],104%
same,"viability, T/C",[2],87.1%
same,"viability, T/C",[3],78.2%
same,"viability, T/C",[4],71.6%
same,"viability, T/C",[5],76.9%
same,"viability, T/C",[6],68.4%
same,"viability, T/C",[7],87.4%
same,"viability, T/C",[8],85.3%
same,"viability, T/C",[9],74%
same,"viability, T/C",[10],65.6%
same,"viability, T/C",[11],73.8%
same,"viability, T/C",[12],67.1%
same,"viability, T/C",[13],92.8%
same,"viability, T/C",[14],95.9%
same,"viability, T/C",[15],75.5%
same,"viability, T/C",[16],74.8%
same,"viability, T/C",[17],72.1%
same,"viability, T/C",[18],67.3%
same,"viability, T/C",[19],97.2%
same,"viability, T/C",[20],82.7%
same,"viability, T/C",[21],80.2%
same,"viability, T/C",[22],76.2%
same,"viability, T/C",[23],72%
same,"viability, T/C",[24],68.9%
C=CC(=O)N1CCN(c2nc(OCC3CCCN3C)nc3c(F)c(-c4nc(N)cc(C)c4C(F)(F)F)c(Cl)cc23)C(C)C1 (stereo not drawn) + C#Cc1c(F)ccc2cc(O)cc(-c3ncc4c(N5CC6CCC(C5)N6)nc(OCC56CCCN5CC(F)C6)nc4c3F)c12,IC50,second compound 0.0316 µM,> 1000 nM
same,IC50,second compound 0.1 µM,> 1000 nM
same,IC50,second compound 0.316 µM,> 1000 nM
same,IC50,second compound 1 µM,> 1000 nM
same,IC50,second compound 3.16 µM,> 1000 nM
same,IC50,second compound 10 µM,> 1000 nM
same,"viability, T/C",[1],102%
same,"viability, T/C",[2],117%
same,"viability, T/C",[3],110%
same,"viability, T/C",[4],107%
same,"viability, T/C",[5],110%
same,"viability, T/C",[6],111%
same,"viability, T/C",[7],108%
same,"viability, T/C",[8],109%
same,"viability, T/C",[9],105%
same,"viability, T/C",[10],109%
same,"viability, T/C",[11],112%
same,"viability, T/C",[12],102%
same,"viability, T/C",[13],99.4%
same,"viability, T/C",[14],94.5%
same,"viability, T/C",[15],97.4%
same,"viability, T/C",[16],102%
same,"viability, T/C",[17],111%
same,"viability, T/C",[18],96.2%
same,"viability, T/C",[19],95.3%
same,"viability, T/C",[20],93.1%
same,"viability, T/C",[21],75.5%
same,"viability, T/C",[22],89.2%
same,"viability, T/C",[23],107%
same,"viability, T/C",[24],86.5%
same,"viability, T/C","second compound 3.16 µM, first compound 0.00316 µM",84.4%
same,"viability, T/C","second compound 3.16 µM, first compound 0.01 µM",80.9%
same,"viability, T/C",[25],85.3%
same,"viability, T/C",[26],92.1%
same,"viability, T/C",[27],99.6%
same,"viability, T/C",[28],80%
same,"viability, T/C","second compound 10 µM, first compound 0.00316 µM",72.3%
same,"viability, T/C","second compound 10 µM, first compound 0.01 µM",58.4%
same,"viability, T/C",[29],68.7%
same,"viability, T/C",[30],68.8%
same,"viability, T/C",[31],76.2%
same,"viability, T/C",[32],55.8%
C[C@@H](NC(=O)c1ncnc(N)c1Cl)c1ncc(C(=O)Nc2cc(C(F)(F)F)c(Cl)cn2)s1 + C#Cc1c(F)ccc2cc(O)cc(-c3ncc4c(N5CC6CCC(C5)N6)nc(OCC56CCCN5CC(F)C6)nc4c3F)c12,IC50,second compound 0.0316 µM,> 10000 nM
same,IC50,second compound 0.1 µM,> 10000 nM
same,IC50,second compound 0.316 µM,> 10000 nM
same,IC50,second compound 1 µM,> 10000 nM
same,IC50,second compound 3.16 µM,> 10000 nM
same,IC50,second compound 10 µM,> 10000 nM
same,"viability, T/C",[3],112%
same,"viability, T/C",[4],124%
same,"viability, T/C",[5],117%
same,"viability, T/C",[6],116%
same,"viability, T/C",[33],116%
same,"viability, T/C",[34],111%
same,"viability, T/C",[9],114%
same,"viability, T/C",[10],112%
same,"viability, T/C",[11],120%
same,"viability, T/C",[12],113%
same,"viability, T/C",[35],122%
same,"viability, T/C",[36],108%
same,"viability, T/C",[15],113%
same,"viability, T/C",[16],115%
same,"viability, T/C",[17],101%
same,"viability, T/C",[18],117%
same,"viability, T/C",[37],112%
same,"viability, T/C",[38],77.1%
same,"viability, T/C",[21],105%
same,"viability, T/C",[22],104%
same,"viability, T/C",[23],98.2%
same,"viability, T/C",[24],111%
same,"viability, T/C",[39],108%
same,"viability, T/C",[40],79.2%
same,"viability, T/C",[25],103%
same,"viability, T/C",[26],84%
same,"viability, T/C",[27],84%
same,"viability, T/C",[28],105%
same,"viability, T/C",[41],96.5%
same,"viability, T/C",[42],70%
same,"viability, T/C",[29],74%
same,"viability, T/C",[30],80.4%
same,"viability, T/C",[31],72.8%
same,"viability, T/C",[32],96%
same,"viability, T/C",[43],63.9%
same,"viability, T/C",[44],74.2%
NC1c2ccccc2OC12CCN(c1cnc3c(N4CCCc5ncccc54)n[nH]c3n1)CC2 (stereo not drawn) + C#Cc1c(F)ccc2cc(O)cc(-c3ncc4c(N5CC6CCC(C5)N6)nc(OCC56CCCN5CC(F)C6)nc4c3F)c12,IC50,second compound 0.0316 µM,363 nM
same,IC50,second compound 0.1 µM,149 nM
same,IC50,second compound 0.316 µM,157 nM
same,IC50,second compound 1 µM,84.6 nM
same,IC50,second compound 3.16 µM,< 31.6 nM
same,IC50,second compound 10 µM,< 31.6 nM
same,"viability, T/C",[3],58.8%
same,"viability, T/C",[4],59.1%
same,"viability, T/C",[5],50.1%
same,"viability, T/C",[6],41.8%
same,"viability, T/C",[33],35.2%
same,"viability, T/C",[34],31.3%
same,"viability, T/C",[9],65.7%
same,"viability, T/C",[10],55.6%
same,"viability, T/C",[11],43.8%
same,"viability, T/C",[12],32.5%
same,"viability, T/C",[35],36.8%
same,"viability, T/C",[36],28.4%
same,"viability, T/C",[15],63.6%
same,"viability, T/C",[16],58.2%
same,"viability, T/C",[17],38.2%
same,"viability, T/C",[18],33%
same,"viability, T/C",[37],26.6%
same,"viability, T/C",[38],21%
same,"viability, T/C",[21],54.3%
same,"viability, T/C",[22],49.7%
same,"viability, T/C",[23],32%
same,"viability, T/C",[24],27.2%
same,"viability, T/C",[39],27.7%
same,"viability, T/C",[40],20.2%
same,"viability, T/C",[25],51.2%
same,"viability, T/C",[26],35.9%
same,"viability, T/C",[27],35%
same,"viability, T/C",[28],29.3%
same,"viability, T/C",[41],26.6%
same,"viability, T/C",[42],18.8%
same,"viability, T/C",[29],39%
same,"viability, T/C",[30],31%
same,"viability, T/C",[31],24.1%
same,"viability, T/C",[32],23.9%
same,"viability, T/C",[43],18.6%
same,"viability, T/C",[44],16.9%
